System: not listed separately
Test: logP determination by HPLC on a reversed-phase column (C18), EEC Directive 79/831 Annex V.A8
Format: physicochemical
Conditions: HPLC, reversed-phase C18, acetonitrile/water with formic acid, 55° C.

SMILES | logP
Cc1cc(C(F)(C(F)(F)F)C(F)(F)F)cc(C)c1-c1cnn(-c2cnc(Cl)c(C(=O)NC3(C#N)CC3)c2)c1 [I-T4-4] | 4.3

Same assay, conditions: HPLC-MS method a), Table I-T3

SMILES | logP^a)
Cc1cc(C(F)(C(F)(F)F)C(F)(F)F)cc(C)c1-n1cc(-c2ccc(Cl)c(C(=O)NC3(C#N)CC3)c2)cn1 [I-T3-3] | 4.2
Cc1cc(C(F)(C(F)(F)F)C(F)(F)F)cc(C)c1-n1cc(-c2cnc(Cl)c(C(=O)NC3CC3)c2)cn1 [I-T3-20] | 3.8
Cc1cc(C(F)(C(F)(F)F)C(F)(F)F)cc(C)c1-n1cc(-c2cnc(Cl)c(C(=O)NC3(C#N)CC3)c2)cn1 [I-T3-21] | 3.7

System: Rhipicephalus sanguineus
Test: Rhipicephalus sanguineus - in vitro contact tests with adult brown dog ticks
Format: in vivo
Conditions: application rate 5 μg/cm^2, after 48 h (dead or moribund)
Experimental: Rhipicephalus sanguineus—In Vitro Contact Tests with Adult Brown Dog Ticks
For the coating of the test tubes, 9 mg of active ingredient are first dissolved in 1 ml of acetone p.a. and then diluted to the desired concentration with acetone p.a. 250 μl of the solution are distributed homogeneously on the inner walls and base of a 25 ml test tube by turning and rocking on an orbital shaker (rocking rotation at 30 rpm for 2 h). With 900 ppm active ingredient solution and internal surface 44.7 cm^2, given homogeneous distribution, an area-based dose of 5 μg/cm^2 is achieved.
After the solvent has evaporated off, the tubes are populated with 5-10 adult dog ticks (Rhipicephalus sanguineus), sealed with a perforated plastic lid and incubated in a horizontal position in the dark at room temperature and ambient humidity. After 48 h, efficacy is determined. To this end, the ticks are knocked to the floor of the tube and incubated on a hotplate at 45-50° C. for not more than 5 min. Ticks which remain motionless on the floor or move in such an uncoordinated manner that they are unable to deliberately avoid the heat by climbing upwards are considered to be dead or moribund.
An efficacy of 100% means that all the ticks were dead or moribund. 0% efficacy means that none of the ticks had been harmed.

SMILES | efficacy
Cc1cc(C(F)(C(F)(F)F)C(F)(F)F)cc(C)c1-n1cc(-c2ccc(Cl)c(C(=O)NC3(C#N)CC3)c2)cn1 [I-T3-3] | 100%
Cc1cc(C(F)(C(F)(F)F)C(F)(F)F)cc(C)c1-n1cc(-c2cnc(Cl)c(C(=O)NC3CC3)c2)cn1 [I-T3-20] | 100%
Cc1cc(C(F)(C(F)(F)F)C(F)(F)F)cc(C)c1-n1cc(-c2cnc(Cl)c(C(=O)NC3(C#N)CC3)c2)cn1 [I-T3-21] | 100%
Cc1cc(C(F)(C(F)(F)F)C(F)(F)F)cc(C)c1-c1cnn(-c2cnc(Cl)c(C(=O)NC3(C#N)CC3)c2)c1 [I-T4-4] | 100%

System: Ctenocephalides felis
Test: Ctenocephalides felis - in vitro contact tests with adult cat fleas
Format: in vivo
Conditions: application rate 5 μg/cm^2 (=500 g/ha), after 48 h (dead or moribund)
How it was run: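 Acetone solution coated on test-tube inner walls (900 ppm gives 5 μg/cm^2). After drying, 5-10 adult cat fleas added and kept horizontal at room temperature and ambient humidity. At 48 h fleas knocked down; motionless or uncoordinated ones counted dead/moribund, giving % efficacy.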

SMILES | efficacy
Cc1cc(C(F)(C(F)(F)F)C(F)(F)F)cc(C)c1-n1cc(-c2ccc(Cl)c(C(=O)NC3(C#N)CC3)c2)cn1 [I-T3-3] | 100%
Cc1cc(C(F)(C(F)(F)F)C(F)(F)F)cc(C)c1-n1cc(-c2cnc(Cl)c(C(=O)NC3CC3)c2)cn1 [I-T3-20] | 100%
Cc1cc(C(F)(C(F)(F)F)C(F)(F)F)cc(C)c1-n1cc(-c2cnc(Cl)c(C(=O)NC3(C#N)CC3)c2)cn1 [I-T3-21] | 100%
Cc1cc(C(F)(C(F)(F)F)C(F)(F)F)cc(C)c1-c1cnn(-c2cnc(Cl)c(C(=O)NC3(C#N)CC3)c2)c1 [I-T4-4] | 100%

System: Amblyomma hebraeum
Test: Amblyomma hebraeum test (tick nymphs, immersion)
Format: in vivo
Conditions: application rate 100 ppm; tick nymphs immersed for one minute; kill after 42 days
Experimental: Solvent: dimethyl sulphoxide
To produce an appropriate active ingredient formulation, 10 mg of active ingredient are mixed with 0.5 ml of dimethyl sulphoxide, and the concentrate is diluted with water to the desired concentration.
Tick nymphs (Amblyomma hebraeum) are placed into perforated plastic beakers and immersed in the desired concentration for one minute. The ticks are transferred on filter paper into a Petri dish and stored in a climate-controlled cabinet.
After 42 days, the kill in % is determined. 100% means that all of the ticks have been killed; 0% means that none of the ticks have been killed.

SMILES | efficacy
Cc1cc(C(F)(C(F)(F)F)C(F)(F)F)cc(C)c1-n1cc(-c2ccc(Cl)c(C(=O)NC3(C#N)CC3)c2)cn1 [I-T3-3] | 100%
Cc1cc(C(F)(C(F)(F)F)C(F)(F)F)cc(C)c1-n1cc(-c2cnc(Cl)c(C(=O)NC3CC3)c2)cn1 [I-T3-20] | 100%
Cc1cc(C(F)(C(F)(F)F)C(F)(F)F)cc(C)c1-n1cc(-c2cnc(Cl)c(C(=O)NC3(C#N)CC3)c2)cn1 [I-T3-21] | 100%
Cc1cc(C(F)(C(F)(F)F)C(F)(F)F)cc(C)c1-c1cnn(-c2cnc(Cl)c(C(=O)NC3(C#N)CC3)c2)c1 [I-T4-4] | 100%

System: Boophilus microplus
Test: Boophilus microplus - injection test
Format: in vivo
Conditions: application rate 20 μg/animal; injected into engorged adult female ticks; laying of fertile eggs, after 7 days
How it was run: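 DMSO formulation, 1 μl intra-abdominal injection, n=5 engorged adult females; climate-controlled room; score fertile eggs d7, unclear eggs held until larval hatch (~42 d); % efficacy, 100% = no fertile eggs.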

SMILES | efficacy
Cc1cc(C(F)(C(F)(F)F)C(F)(F)F)cc(C)c1-n1cc(-c2ccc(Cl)c(C(=O)NC3(C#N)CC3)c2)cn1 [I-T3-3] | 100%
Cc1cc(C(F)(C(F)(F)F)C(F)(F)F)cc(C)c1-n1cc(-c2cnc(Cl)c(C(=O)NC3CC3)c2)cn1 [I-T3-20] | 100%
Cc1cc(C(F)(C(F)(F)F)C(F)(F)F)cc(C)c1-n1cc(-c2cnc(Cl)c(C(=O)NC3(C#N)CC3)c2)cn1 [I-T3-21] | 100%
Cc1cc(C(F)(C(F)(F)F)C(F)(F)F)cc(C)c1-c1cnn(-c2cnc(Cl)c(C(=O)NC3(C#N)CC3)c2)c1 [I-T4-4] | 100%

System: Boophilus microplus Parkhurst strain, SP-resistant
Test: Boophilus microplus - dip test
Format: in vivo
Conditions: application rate 100 ppm; dip of engorged adult female ticks; laying of fertile eggs, after 7 days
How it was run: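 Adult engorged females of SP-resistant Parkhurst strain (8–10 per tube) fully immersed in compound diluted in water from a DMSO solution. Ticks then kept on filter discs in a climate-controlled room; efficacy scored from fertile egg laying at 7 days, with unclear eggs held about 42 days until hatch (100% = no fertile eggs).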

SMILES | efficacy
Cc1cc(C(F)(C(F)(F)F)C(F)(F)F)cc(C)c1-n1cc(-c2ccc(Cl)c(C(=O)NC3(C#N)CC3)c2)cn1 [I-T3-3] | 100%
Cc1cc(C(F)(C(F)(F)F)C(F)(F)F)cc(C)c1-n1cc(-c2cnc(Cl)c(C(=O)NC3CC3)c2)cn1 [I-T3-20] | 100%
Cc1cc(C(F)(C(F)(F)F)C(F)(F)F)cc(C)c1-n1cc(-c2cnc(Cl)c(C(=O)NC3(C#N)CC3)c2)cn1 [I-T3-21] | 100%
Cc1cc(C(F)(C(F)(F)F)C(F)(F)F)cc(C)c1-c1cnn(-c2cnc(Cl)c(C(=O)NC3(C#N)CC3)c2)c1 [I-T4-4] | 100%

System: Ctenocephalides felis
Test: Ctenocephalides felis - oral test
Format: in vivo
Conditions: application rate 100 ppm in citrated cattle blood; adult fleas; kill after 2 days
How it was run: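 Mortality in % was recorded 2 days after about 20 unfed adult cat fleas were allowed to imbibe citrated cattle blood containing the active ingredient through a parafilm membrane. The compound was first taken up in DMSO and then diluted with the blood to the desired concentration.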

SMILES | efficacy
Cc1cc(C(F)(C(F)(F)F)C(F)(F)F)cc(C)c1-n1cc(-c2ccc(Cl)c(C(=O)NC3(C#N)CC3)c2)cn1 [I-T3-3] | 100%
Cc1cc(C(F)(C(F)(F)F)C(F)(F)F)cc(C)c1-n1cc(-c2cnc(Cl)c(C(=O)NC3CC3)c2)cn1 [I-T3-20] | 100%
Cc1cc(C(F)(C(F)(F)F)C(F)(F)F)cc(C)c1-n1cc(-c2cnc(Cl)c(C(=O)NC3(C#N)CC3)c2)cn1 [I-T3-21] | 100%
Cc1cc(C(F)(C(F)(F)F)C(F)(F)F)cc(C)c1-c1cnn(-c2cnc(Cl)c(C(=O)NC3(C#N)CC3)c2)c1 [I-T4-4] | 100%

System: Lucilia cuprina
Test: Lucilia cuprina test
Format: in vivo
Conditions: application rate 100 ppm; L1 larvae in minced horsemeat; kill after 2 days
How it was run: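 About 20 L1 larvae placed on minced horsemeat treated with compound, formulated in DMSO and diluted with water to test concentration. Kill in % scored after 2 days (100% = all larvae dead, 0% = none).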

SMILES | efficacy
Cc1cc(C(F)(C(F)(F)F)C(F)(F)F)cc(C)c1-n1cc(-c2ccc(Cl)c(C(=O)NC3(C#N)CC3)c2)cn1 [I-T3-3] | 100%
Cc1cc(C(F)(C(F)(F)F)C(F)(F)F)cc(C)c1-n1cc(-c2cnc(Cl)c(C(=O)NC3CC3)c2)cn1 [I-T3-20] | 100%
Cc1cc(C(F)(C(F)(F)F)C(F)(F)F)cc(C)c1-n1cc(-c2cnc(Cl)c(C(=O)NC3(C#N)CC3)c2)cn1 [I-T3-21] | 100%
Cc1cc(C(F)(C(F)(F)F)C(F)(F)F)cc(C)c1-c1cnn(-c2cnc(Cl)c(C(=O)NC3(C#N)CC3)c2)c1 [I-T4-4] | 100%

System: Musca domestica
Test: Musca domestica test
Format: in vivo
Conditions: application rate 100 ppm; adult houseflies; kill after 2 days
How it was run: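 Percent kill of adult houseflies is recorded 2 days after exposure, where 100% denotes all flies dead and 0% none. Flies (10 per vessel) feed from a sponge carrying sugar solution and the aqueous-diluted DMSO formulation.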

SMILES | efficacy
Cc1cc(C(F)(C(F)(F)F)C(F)(F)F)cc(C)c1-n1cc(-c2ccc(Cl)c(C(=O)NC3(C#N)CC3)c2)cn1 [I-T3-3] | 100%
Cc1cc(C(F)(C(F)(F)F)C(F)(F)F)cc(C)c1-n1cc(-c2cnc(Cl)c(C(=O)NC3CC3)c2)cn1 [I-T3-20] | 100%
Cc1cc(C(F)(C(F)(F)F)C(F)(F)F)cc(C)c1-n1cc(-c2cnc(Cl)c(C(=O)NC3(C#N)CC3)c2)cn1 [I-T3-21] | 100%
